Measured values from patent US11046716B2, “Beta-lactamase inhibitors” (priority 2015, dated 2021).

Tests used:
[1] = test system: K. pneumoniae expressing the class A carbapenemase KPC-2 and the class B carbapenemase VIM-4; experiment: Broth microdilution MIC assay with meropenem, K. pneumoniae KPC-2 and VIM-4; assay type: cell-based; settings: Fixed Mero (meropenem) 4 μg/mL; K. p. A-1797 KPC-2 VIM-4
How it was run: (§1)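 Test compound was titrated 2-fold from 16 to 0.125 μg/mL in cation-adjusted Mueller Hinton broth against a fixed 4 μg/ml β-lactam overlay. Plates were inoculated per CLSI broth microdilution, incubated 16-20 hours at 37° C, and the MIC of the test compound was read visually.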

[2] = test system: E. coli expressing the Class A Extended Spectrum Beta-Lactamase (ESBL) CTX-M-15; experiment: Broth microdilution MIC assay with ceftazidime, E. coli CTX-M-15; assay type: cell-based; settings: Fixed CAZ (ceftazidime) 4 μg/mL; E. coli ESBL4 CTX-M-15
How it was run: as §1

VIM-2 = biological target: T1, VIM-2 (Escherichia coli, UniProt Q5U7L7); experiment: β-lactamase enzyme inhibition assay, VIM-2 (nitrocefin substrate); assay type: biochemical; settings: Class B; nitrocefin substrate, 486 nm; read-out: VIM-2
T1 construct: made in house; host or cells: E. coli BL21(DE3)
How it was run: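 Purified VIM-2 (Q sepharose anion exchange, Hepes pH 7.5, >90% pure) was preincubated with inhibitor at 37 °C for 15 min, then nitrocefin added at 100 μM final. Absorbance at 486 nm was followed for 10 min; IC50 was taken from maximum hydrolysis rates relative to inhibitor-free controls.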

[3] = test system: K. pneumoniae expressing the Class A carbapenemase KPC-2; experiment: Broth microdilution MIC assay with meropenem, K. pneumoniae KPC-2; assay type: cell-based; settings: Fixed Mero (meropenem) 4 μg/mL; K. p. 156319 KPC-3
How it was run: as §1

KPC-2 = biological target: T2, KPC-2 (Klebsiella pneumoniae, UniProt Q9F663); experiment: β-lactamase enzyme inhibition assay, KPC-2 (imipenem substrate); assay type: biochemical; settings: Class A; imipenem substrate, 300 nm; read-out: KPC-2
T2 construct: made in house; host or cells: E. coli BL21(DE3)
How it was run: (§2)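 Native untagged β-lactamases were expressed in E. coli BL21(DE3), then purified by cation exchange and gel filtration. Enzyme was preincubated with inhibitor for 15 min at 37 °C before substrate was added. Imipenem (A300) served KPC-2 and cefotaxime (A260) served SHV-5. IC50 was taken from initial hydrolysis rates relative to no-inhibitor controls.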

[4] = test system: E. cloacae expressing the Class C P99; experiment: Broth microdilution MIC assay with ceftazidime, E. cloacae P99; assay type: cell-based; settings: Fixed CAZ (ceftazidime) 4 μg/mL; E. cl. 144200 p99 AmpC
How it was run: as §1

SHV-5 = biological target: T3, SHV-5 (Klebsiella pneumoniae, UniProt P0A3M1); experiment: β-lactamase enzyme inhibition assay, SHV-5 (cefotaxime substrate); assay type: biochemical
T3 construct: made in house; host or cells: E. coli BL21(DE3)
How it was run: as §2

[5] = test system: P. aeruginosa expressing the Class B carbapenemase VIM-2; experiment: Broth microdilution MIC assay with meropenem, P. aeruginosa VIM-2; assay type: cell-based; settings: Fixed Mero (meropenem) 4 μg/mL; P. aerug. 2775 VIM-2
How it was run: as §1

[6] = test system: K. pneumoniae producing the Class D carbapenemase OXA-48; experiment: Broth microdilution MIC assay with meropenem, K. pneumoniae OXA-48; assay type: cell-based; settings: Fixed Mero (meropenem) 4 μg/mL; K. p. 11978 OXA-48
How it was run: as §1

AmpC = biological target: T4, AmpC (Enterobacter cloacae, UniProt P05364); experiment: β-lactamase enzyme inhibition assay, p99 AmpC (nitrocefin substrate); assay type: biochemical
T4 construct: made in house; host or cells: E. coli BL21(DE3)
How it was run: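 Native untagged β-lactamases were expressed in E. coli BL21(DE3), then purified by cation exchange and gel filtration. Enzyme was preincubated with inhibitor for 15 min at 37 °C before substrate was added. IC50 was taken from initial hydrolysis rates relative to no-inhibitor controls.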

OXA-48 = OXA-48 (UniProt Q6XEC0); experiment: β-lactamase enzyme inhibition assay, Class D oxacillinase; assay type: biochemical; settings: read-out: OXA-48

T3 sequence (P0A3M1 22-286): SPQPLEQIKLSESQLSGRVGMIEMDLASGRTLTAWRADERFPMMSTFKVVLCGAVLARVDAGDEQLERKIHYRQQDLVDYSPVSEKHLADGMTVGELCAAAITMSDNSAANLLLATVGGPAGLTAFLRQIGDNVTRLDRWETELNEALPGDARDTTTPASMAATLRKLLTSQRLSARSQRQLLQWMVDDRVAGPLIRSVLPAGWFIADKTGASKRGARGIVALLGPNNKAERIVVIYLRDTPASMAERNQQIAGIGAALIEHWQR
T2 sequence (Q9F663 25-293, looked up): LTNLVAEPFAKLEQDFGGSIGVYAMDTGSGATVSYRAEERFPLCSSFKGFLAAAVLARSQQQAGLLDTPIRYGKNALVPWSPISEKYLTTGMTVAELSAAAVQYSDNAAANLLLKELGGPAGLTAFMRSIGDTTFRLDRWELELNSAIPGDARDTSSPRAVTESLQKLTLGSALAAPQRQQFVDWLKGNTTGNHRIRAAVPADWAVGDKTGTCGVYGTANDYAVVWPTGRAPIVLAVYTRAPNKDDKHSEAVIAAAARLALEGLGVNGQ
T4 sequence (P05364 21-381): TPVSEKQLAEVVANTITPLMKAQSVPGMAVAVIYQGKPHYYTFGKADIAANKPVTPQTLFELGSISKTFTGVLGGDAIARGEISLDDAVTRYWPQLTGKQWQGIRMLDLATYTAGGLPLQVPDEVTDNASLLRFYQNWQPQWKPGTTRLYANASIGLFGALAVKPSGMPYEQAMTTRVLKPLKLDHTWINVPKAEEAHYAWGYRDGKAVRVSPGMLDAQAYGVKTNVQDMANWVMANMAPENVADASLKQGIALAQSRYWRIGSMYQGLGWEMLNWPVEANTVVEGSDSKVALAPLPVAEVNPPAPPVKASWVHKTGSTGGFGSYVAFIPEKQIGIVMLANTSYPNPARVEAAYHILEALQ

Row | Structure (SMILES) | MIC (μg/mL) of Exemplary Compounds in presence of fixed β-lactams: K. p. A-1797 KPC-2 VIM-4 [1] | MIC (μg/mL) of Exemplary Compounds in presence of fixed β-lactams: E. coli ESBL4 CTX-M-15 [2] | IC50 (VIM-2) [nM] | MIC (μg/mL) of Exemplary Compounds in presence of fixed β-lactams: K. p. 156319 KPC-3 [3] | IC50 (KPC-2) [nM] | MIC (μg/mL) of Exemplary Compounds in presence of fixed β-lactams: E. cl. 144200 p99 AmpC [4] | IC50 (SHV-5) [nM] | MIC (μg/mL) of Exemplary Compounds in presence of fixed β-lactams: P. aerug. 2775 VIM-2 [5] | MIC (μg/mL) of Exemplary Compounds in presence of fixed β-lactams: K. p. 11978 OXA-48 [6] | IC50 (AmpC) [nM] | IC50 (OXA-48) [nM]
1 | N=C(N)NCCn1nnnc1CC(=O)N[C@H]1Cc2cccc(C(=O)O)c2OB1O [Example 47, (R)-3-(2-(1-(2-guanidinoethyl)-1H-tetrazol-5-yl)acetamido)-2-hydroxy-3,4-dihydro-2H-benzo[e][1,2]oxaborinine-8-carboxylic acid] | B (B represents an MIC between 1 and 16 μg/mL inclusive) | C (C represents an MIC of <1 μg/mL) | < 100 | C (C represents an MIC of <1 μg/mL) | < 100 | C (C represents an MIC of <1 μg/mL) | < 100 | C (C represents an MIC of <1 μg/mL) | C (C represents an MIC of <1 μg/mL) | < 100 | 1000 to 10000
2 | N=C(N)NCCn1nnc(CC(=O)N[C@H]2Cc3cccc(C(=O)O)c3OB2O)n1 [Example 48, (R)-3-(2-(2-(2-guanidinoethyl)-2H-tetrazol-5-yl)acetamido)-2-hydroxy-3,4-dihydro-2H-benzo[e][1,2]oxaborinine-8-carboxylic acid] | B (B represents an MIC between 1 and 16 μg/mL inclusive) | C (C represents an MIC of <1 μg/mL) | < 100 | B (B represents an MIC between 1 and 16 μg/mL inclusive) | < 100 | C (C represents an MIC of <1 μg/mL) | < 100 | C (C represents an MIC of <1 μg/mL) | B (B represents an MIC between 1 and 16 μg/mL inclusive) | < 100 | 1000 to 10000
3 | CN(C)CCn1nnnc1CC(=O)N[C@H]1Cc2cccc(C(=O)O)c2OB1O [Example 49, (R)-3-(2-(1-(2-(dimethylamino)ethyl)-1H-tetrazol-5-yl)acetamido)-2-hydroxy-3,4-dihydro-2H-benzo[e][1,2]oxaborinine-8-carboxylic acid] | B (B represents an MIC between 1 and 16 μg/mL inclusive) | C (C represents an MIC of <1 μg/mL) | 100 to 1000 | C (C represents an MIC of <1 μg/mL) | < 100 | C (C represents an MIC of <1 μg/mL) | < 100 | B (B represents an MIC between 1 and 16 μg/mL inclusive) | B (B represents an MIC between 1 and 16 μg/mL inclusive) | < 100 | 100 to 1000
4 | NCCCn1nnnc1CC(=O)N[C@H]1Cc2cccc(C(=O)O)c2OB1O [Example 50, (R)-3-(2-(1-(3-aminopropyl)-1H-tetrazol-5-yl)acetamido)-2-hydroxy-3,4-dihydro-2H-benzo[e][1,2]oxaborinine-8-carboxylic acid] | C (C represents an MIC of <1 μg/mL) | C (C represents an MIC of <1 μg/mL) | < 100 | C (C represents an MIC of <1 μg/mL) | < 100 | C (C represents an MIC of <1 μg/mL) | < 100 | C (C represents an MIC of <1 μg/mL) | B (B represents an MIC between 1 and 16 μg/mL inclusive) | < 100 | 1000 to 10000
5 | NCCCn1nnc(CC(=O)N[C@H]2Cc3cccc(C(=O)O)c3OB2O)n1 [Example 51] | B (B represents an MIC between 1 and 16 μg/mL inclusive) | C (C represents an MIC of <1 μg/mL) | < 100 | C (C represents an MIC of <1 μg/mL) | < 100 | C (C represents an MIC of <1 μg/mL) | < 100 | C (C represents an MIC of <1 μg/mL) | B (B represents an MIC between 1 and 16 μg/mL inclusive) | < 100 | 1000 to 10000
6 | CC(C)NCCn1nnnc1CC(=O)N[C@H]1Cc2cccc(C(=O)O)c2OB1O [Example 52, (R)-2-hydroxy-3-(2-(1-(2-(isopropylamino)ethyl)-1H-tetrazol-5-yl)acetamido)-3,4-dihydro-2H-benzo[e][1,2]oxaborinine-8-carboxylic acid] | B (B represents an MIC between 1 and 16 μg/mL inclusive) | C (C represents an MIC of <1 μg/mL) | < 100 | C (C represents an MIC of <1 μg/mL) | < 100 | C (C represents an MIC of <1 μg/mL) | < 100 | C (C represents an MIC of <1 μg/mL) | B (B represents an MIC between 1 and 16 μg/mL inclusive) | < 100 | 1000 to 10000
7 | N=C(N)NCCCn1nnnc1CC(=O)N[C@H]1Cc2cccc(C(=O)O)c2OB1O [Example 53, (R)-3-(2-(1-(3-guanidinopropyl)-1H-tetrazol-5-yl)acetamido)-2-hydroxy-3,4-dihydro-2H-benzo[e][1,2]oxaborinine-8-carboxylic acid] | C (C represents an MIC of <1 μg/mL) | C (C represents an MIC of <1 μg/mL) | < 100 | C (C represents an MIC of <1 μg/mL) | < 100 | C (C represents an MIC of <1 μg/mL) | < 100 | C (C represents an MIC of <1 μg/mL) | B (B represents an MIC between 1 and 16 μg/mL inclusive) | < 100 | 1000 to 10000
8 | CCn1nnnc1CC(=O)N[C@H]1Cc2cccc(C(=O)O)c2OB1O [Example 54, (R)-3-(2-(1-ethyl-1H-tetrazol-5-yl)acetamido)-2-hydroxy-3,4-dihydro-2H-benzo[e][1,2]oxaborinine-8-carboxylic acid] | B (B represents an MIC between 1 and 16 μg/mL inclusive) | C (C represents an MIC of <1 μg/mL) | 100 to 1000 | B (B represents an MIC between 1 and 16 μg/mL inclusive) | < 100 | C (C represents an MIC of <1 μg/mL) | < 100 | B (B represents an MIC between 1 and 16 μg/mL inclusive) | B (B represents an MIC between 1 and 16 μg/mL inclusive) | < 100 | 1000 to 10000
